In patent US8829007B2 (priority 2009, dated 2014):
Like-named read-outs stand apart in the source and are kept apart here.

How the values were obtained:
[1] = test system: influenza A virus (A/PR/8/34); assay: microbe, parasite or virus in culture; assay type: cell-based
[2] = test system: A/PR/8/34 influenza virus; assay: microbe, parasite or virus in culture; assay type: cell-based
[3] = Influenza A virus, PR/8, MDCK, MDCK cells infected with A/PR/8/34, survival of infected cells, class symbols, read-out: IC50 (mean all)
[4] = Influenza A virus, PR/8, MDCK, MDCK cells infected with A/PR/8/34, replication of influenza virus (viral RNA, bDNA), class symbols, read-out: EC50 (mean all)
[5] = Influenza A virus, PR/8, MDCK, mean all, survival of A/PR/8/34 infected MDCK cells (CPE assay), read-out: IC50
[6] = Influenza A virus, PR/8, mean all, replication of A/PR/8/34 influenza virus (bDNA assay), read-out: EC50
[7] = Influenza A virus, PR/8, MDCK, MDCK cells infected with A/PR/8/34, cell protection (CPE), read-out: IC50 (mean all)
[8] = Influenza A virus, PR/8, MDCK, MDCK cells infected with A/PR/8/34, bDNA viral RNA, read-out: EC50 (mean all)
[9] = Influenza A virus, PR/8, MDCK, mean all, A/PR/8/34 infected MDCK cells, CPE assay, read-out: IC50
[10] = Influenza A virus, PR/8, MDCK, mean all, A/PR/8/34 influenza virus in MDCK cells, bDNA assay, read-out: EC50
[11] = Influenza A virus, PR/8, MDCK, bDNA assay, A/PR/8/34 influenza virus replication in MDCK cells, class symbols, read-out: EC50 (mean all)

Compound: 1-[(1S,2S)-2-[[2-(5-chloro-1H-pyrrolo[2,3-b]pyridin-3-yl)-5-fluoro-pyrimidin-4-yl]amino]cyclohexyl]-3-methyl-urea [Compound 426]
- IC50 ([1]; read-out: IC50): < 5 µM
- EC50 ([2]; mean all, A/PR/8/34 influenza virus in MDCK cells, bDNA assay, read-out: EC50): < 5 µM

Compound: O=C(O)[C@H]1CCCC[C@@H]1Nc1nc(-c2c[nH]c3ncc(Cl)cc23)ncc1F (racemic) [Compound 541, Trans-2-(2-(5-chloro-1H-pyrrolo[2,3-b]pyridin-3-yl)-5-fluoropyrimidin-4-ylamino)cyclohexanecarboxylic acid]
- IC50 [1, 3]: < 5 µM
- EC50 [2, 4]: < 5 µM

Compound: N[C@@H]1CCCC[C@H]1CNc1nc(-c2c[nH]c3ncc(Cl)cc23)ncc1F (racemic) [Compound 555, N-((trans-2-aminocyclohexyl)methyl)-2-(5-chloro-1H-pyrrolo[2,3-b]pyridin-3-yl)-5-fluoropyrimidin-4-amine]
- IC50 [1, 3]: > 10 µM
- EC50 [2, 4]: < 5 µM

Compound: O=C(O)[C@H]1[C@@H]2CC[C@@H](C2)[C@@H]1Nc1nc(-c2c[nH]c3ncc(Cl)cc23)ncc1F (racemic) [Compound 946]
- IC50 [1, 5]: < 5 µM
- EC50 [2, 6]: < 5 µM

Compound: O=C(O)[C@H]1C(Nc2nc(-c3c[nH]c4ncc(Cl)cc34)ncc2F)[C@H]2CC[C@@H]1C2 (mixture of isomers) [Compound 947]
- IC50 [1, 5]: < 5 µM
- EC50 [2, 6]: < 5 µM

Compound: O[C@@H]1CCCC[C@H]1Nc1nc(-c2c[nH]c3ncccc23)ncc1F (relative stereo) [Compound 207, Trans-2-[[5-fluoro-2-(1H-pyrrolo[2,3-b]pyridin-3-yl)pyrimidin-4-yl]amino]cyclohexanol]
- IC50 [1, 7]: < 5 µM
- EC50 [2, 8]: < 5 µM

Compound: O[C@@H]1CCCC[C@@H]1Nc1nc(-c2c[nH]c3ncccc23)ncc1F (relative stereo) [Compound 277, Cis-2-[[5-fluoro-2-(1H-pyrrolo[2,3-b]pyridin-3-yl)pyrimidin-4-yl]amino]cyclohexanol]
- IC50 [1, 7]: < 5 µM
- EC50 [2, 8]: < 5 µM

Compound: CC(=O)N[C@H]1CCC[C@@H](Nc2nc(-c3c[nH]c4ncc(Cl)cc34)ncc2F)C1 (relative stereo) [Compound 452, N-[cis-3-[[2-(5-chloro-1H-pyrrolo[2,3-b]pyridin-3-yl)-5-fluoropyrimidin-4-yl]amino]cyclohexyl]acetamide]
- IC50 [1, 9]: < 5 µM
- EC50 [2, 10]: < 5 µM

Compound: CNC(=O)N[C@H]1CCC[C@@H](Nc2nc(-c3c[nH]c4ncc(Cl)cc34)ncc2F)C1 (relative stereo) [Compound 455, 1-[cis-3-[[2-(5-chloro-1H-pyrrolo[2,3-b]pyridin-3-yl)-5-fluoro-pyrimidin-4-yl]amino]cyclohexyl]-3-methyl-urea]
- IC50 [1, 9]: < 5 µM
- EC50 [2, 10]: < 5 µM

Compound: CN(C)C(=O)N[C@H]1CCC[C@@H](Nc2nc(-c3c[nH]c4ncc(Cl)cc34)ncc2F)C1 (relative stereo) [Compound 456, 3-[cis-3-[[2-(5-chloro-1H-pyrrolo[2,3-b]pyridin-3-yl)-5-fluoro-pyrimidin-4-yl]amino]cyclohexyl]-1,1-dimethyl-urea]
- IC50 [1, 9]: < 5 µM
- EC50 [2, 10]: < 5 µM

Compound: CC(=O)N[C@H]1CCC[C@H](Nc2nc(-c3c[nH]c4ncc(Cl)cc34)ncc2F)C1.CC(N)=O (relative stereo) [Compound 457, N-[trans-3-[[2-(5-chloro-1H-pyrrolo[2,3-b]pyridin-3-yl)-5-fluoro-pyrimidin-4-yl]amino]cyclohexyl]acetamide acetamide]
- IC50 [1, 9]: < 5 µM
- EC50 [2, 10]: < 5 µM

Compound: CNC(=O)N[C@H]1CCC[C@H](Nc2nc(-c3c[nH]c4ncc(Cl)cc34)ncc2F)C1 (relative stereo) [Compound 458, 1-[trans-3-[[2-(5-chloro-1H-pyrrolo[2,3-b]pyridin-3-yl)-5-fluoro-pyrimidin-4-yl]amino]cyclohexyl]-3-methyl-urea]
- IC50 [1, 9]: < 5 µM
- EC50 [2, 10]: < 5 µM

Compound: CN(C)C(=O)N[C@H]1CCC[C@H](Nc2nc(-c3c[nH]c4ncc(Cl)cc34)ncc2F)C1 (relative stereo) [Compound 459, 3-[trans-3-[[2-(5-chloro-1H-pyrrolo[2,3-b]pyridin-3-yl)-5-fluoro-pyrimidin-4-yl]amino]cyclohexyl]-1,1-dimethyl-urea]
- IC50 [1, 9]: < 5 µM
- EC50 [2, 10]: < 5 µM

Compound: CNC(=O)[C@@H]1CCCC[C@@H]1Nc1nc(-c2c[nH]c3ncc(Cl)cc23)ncc1F (relative stereo) [Compound 539, Cis-2-(2-(5-chloro-1H-pyrrolo[2,3-b]pyridin-3-yl)-5-fluoropyrimidin-4-ylamino)-N-methylcyclohexanecarboxamide]
- IC50 [1, 3]: 5 to 20 µM
- EC50 [2, 4]: < 5 µM

Compound: CN(C)C(=O)[C@@H]1CCCC[C@@H]1Nc1nc(-c2c[nH]c3ncc(Cl)cc23)ncc1F (relative stereo) [Compound 543, Cis-2-(2-(5-chloro-1H-pyrrolo[2,3-b]pyridin-3-yl)-5-fluoropyrimidin-4-ylamino)-N,N-dimethylcyclohexanecarboxamide]
- IC50 [1, 3]: < 5 µM
- EC50 [2, 4]: < 5 µM

Compound: NC(=O)[C@@H]1CCCC[C@@H]1Nc1nc(-c2c[nH]c3ncc(Cl)cc23)ncc1F (relative stereo) [Compound 544, cis-2-(2-(5-chloro-1H-pyrrolo[2,3-b]pyridin-3-yl)-5-fluoropyrimidin-4-ylamino)cyclohexanecarboxamide]
- IC50 [1, 3]: > 20 µM
- EC50 [2, 4]: < 5 µM

Compound: O=C(O)[C@@H]1CCCC[C@@H]1Nc1nc(-c2c[nH]c3ncc(Cl)cc23)ncc1F (relative stereo) [Compound 554]
- IC50 ([1]; read-out: IC50 (mean all)): > 10 µM
- EC50 ([2]; […], replication of influenza virus (viral RNA, bDNA), class symbols, read-out: EC50 (mean all)): 5 to 10 µM

Compound: COCC(=O)N[C@@H]1CCCC[C@H]1CNc1nc(-c2c[nH]c3ncc(Cl)cc23)ncc1F (relative stereo) [Compound 556, N-(trans-2-((2-(5-chloro-1H-pyrrolo[2,3-b]pyridin-3-yl)-5-fluoropyrimidin-4-ylamino)methyl)cyclohexyl)-2-methoxyethanamide]
- IC50 [1, 3]: > 10 µM
- EC50 [2, 4]: < 5 µM

Compound: O=C(O)[C@@H]1CCC[C@@H]1Nc1nc(-c2c[nH]c3ncc(Cl)cc23)ncc1F (relative stereo) [Compound 558, Cis-2-(2-(5-chloro-1H-pyrrolo[2,3-b]pyridin-3-yl)-5-fluoropyrimidin-4-ylamino)cyclopentanecarboxylic acid]
- IC50 [1, 3]: < 5 µM
- EC50 [2, 4]: < 5 µM

Compound: CC(C(N)=O)N1CCCC(Nc2nc(-c3c[nH]c4ncc(Cl)cc34)ncc2F)C1 [Compound 583, 2-((S)-3-((2-(5-chloro-1H-pyrrolo[2,3-b]pyridin-3-yl)-5-fluoropyrimidin-4-ylamino)piperidin-1-yl)propanamide]
- EC50 [2, 4]: < 5 µM

Compound: COCCC(=O)N1CCC(F)(F)CC1CNc1nc(-c2c[nH]c3ncc(Cl)cc23)ncc1F (centres unmarked) [Compound 584, 1-(2-((2-(5-chloro-1H-pyrrolo[2,3-b]pyridin-3-yl)-5-fluoropyrimidin-4-ylamino)methyl)-4,4-difluoropiperidin-1-yl)-3-methoxypropan-1-one]
- EC50 [2, 4]: < 5 µM

Compound: Fc1cnc(-c2c[nH]c3ncc(Cl)cc23)nc1N[C@H]1CCCN(Cc2ncc[nH]2)C1 [Compound 589, (S)—N-(1-((1H-imidazol-2-yl)methyl)piperidin-3-yl)-2-(5-chloro-1H-pyrrolo[2,3-b]pyridin-3-yl)-5-fluoropyrimidin-4-amine]
- EC50 [2, 4]: < 5 µM

Compound: CC(C)(C(=O)O)N1CCC[C@H](Nc2nc(-c3c[nH]c4ncc(Cl)cc34)ncc2F)C1 [Compound 590]
- EC50 [2, 4]: > 3.3 µM

Compound: COCCOC(=O)N[C@@H]1CCC[C@H](Nc2nc(-c3c[nH]c4ncc(Cl)cc34)ncc2F)C1 [Compound 592, 2-methoxyethyl N-[(1R,3S)-3-[[2-(5-chloro-1H-pyrrolo[2,3-b]pyridin-3-yl)-5-fluoro-pyrimidin-4-yl]amino]cyclohexyl]carbamate]
- EC50 [2, 4]: < 5 µM

Compound: NC(=O)CN[C@@H]1CCC[C@H](Nc2nc(-c3c[nH]c4ncc(Cl)cc34)ncc2F)C1 [Compound 593]
- EC50 [2, 4]: < 5 µM

Compound: N#CCCCN1CCC[C@@H](CNc2nc(-c3c[nH]c4ncc(Cl)cc34)ncc2F)C1 [Compound 666, (S)-4-(3-((2-(5-chloro-1H-pyrrolo[2,3-b]pyridin-3-yl)-5-fluoropyrimidin-4-ylamino)methyl)piperidin-1-yl)butanenitrile]
- EC50 [2, 11]: > 10 µM

Compound: N#CCCN1CCC[C@@H](CNc2nc(-c3c[nH]c4ncc(Cl)cc34)ncc2F)C1 [Compound 667, (S)-3-(3-((2-(5-chloro-1H-pyrrolo[2,3-b]pyridin-3-yl)-5-fluoropyrimidin-4-ylamino)methyl)piperidin-1-yl)propanenitrile]
- EC50 [2, 11]: > 10 µM

Compound: Fc1cnc(-c2c[nH]c3ncc(Cl)cc23)nc1N[C@H]1CCCN(CC(F)(F)F)C1 [Compound 668, (S)-2-(5-chloro-1H-pyrrolo[2,3-b]pyridin-3-yl)-5-fluoro-N-(1-(2,2,2-trifluoroethyl)piperidin-3-yl)pyrimidin-4-amine]
- EC50 [2, 11]: < 5 µM

Compound: NC(=O)[C@@H]1CCC[C@H](Nc2nc(-c3c[nH]c4ncc(Cl)cc34)ncc2F)C1 [Compound 847]
- EC50 ([2]; mean all, A/PR/8/34 influenza virus replication, bDNA, read-out: EC50): < 5 µM

Compound: C[C@@]1(C(N)=O)CCC[C@H](Nc2nc(-c3c[nH]c4ncc(Cl)cc34)ncc2F)C1 [Compound 924, (1R,3S)-3-[[2-(5-chloro-1H-pyrrolo[2,3-b]pyridin-3-yl)-5-fluoro-pyrimidin-4-yl]amino]-1-methyl-cyclohexanecarboxamide]
- EC50 [2, 6]: < 5 µM

Compound: C[C@@]1(NC(=O)N2CCCC2)CCCC(Nc2nc(-c3c[nH]c4ncc(Cl)cc34)ncc2F)C1 (some centres unmarked) [Compound 926]
- EC50 [2, 6]: < 5 µM
